These results are taken from PMC7821181, “MS Binding Assays for Glycine Transporter 2 (GlyT2) Employing Org25543 as Reporter Ligand” (Chemmedchem, 2020).

The target in one test is T1, hGlyT2 (Homo sapiens, UniProt Q9Y345).
T1 construct: host or cells: HEK293 cells stably expressing hGlyT2; crude membrane fractions
T1 sequence (Q9Y345 1-797): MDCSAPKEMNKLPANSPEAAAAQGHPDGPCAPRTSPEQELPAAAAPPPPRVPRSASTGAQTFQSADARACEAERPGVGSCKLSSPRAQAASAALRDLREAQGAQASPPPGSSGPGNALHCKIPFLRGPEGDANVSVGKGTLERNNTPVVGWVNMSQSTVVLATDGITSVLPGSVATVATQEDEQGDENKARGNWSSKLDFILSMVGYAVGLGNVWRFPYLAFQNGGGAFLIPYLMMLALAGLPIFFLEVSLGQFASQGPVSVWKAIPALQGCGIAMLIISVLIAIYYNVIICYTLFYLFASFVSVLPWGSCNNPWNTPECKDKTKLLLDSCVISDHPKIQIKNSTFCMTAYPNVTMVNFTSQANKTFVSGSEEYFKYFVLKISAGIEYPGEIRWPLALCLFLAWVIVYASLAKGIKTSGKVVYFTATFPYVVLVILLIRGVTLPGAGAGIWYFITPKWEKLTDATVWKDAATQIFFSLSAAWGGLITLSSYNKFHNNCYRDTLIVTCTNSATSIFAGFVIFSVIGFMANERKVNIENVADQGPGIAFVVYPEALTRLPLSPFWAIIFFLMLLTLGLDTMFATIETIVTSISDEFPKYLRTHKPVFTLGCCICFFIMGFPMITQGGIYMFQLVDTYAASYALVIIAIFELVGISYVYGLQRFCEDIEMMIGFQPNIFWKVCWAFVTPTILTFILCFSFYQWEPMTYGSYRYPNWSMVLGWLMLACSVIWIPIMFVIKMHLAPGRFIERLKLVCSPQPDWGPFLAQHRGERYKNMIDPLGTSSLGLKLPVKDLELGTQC
Description: GlyT2 MS Binding Assays: competition experiments with Org25543 as reporter ligand. The note with it: for completeness of displacement of Org25543 from GlyT2, in words: up to the highest concentration investigated (glycine 1 M); for affinity / inhibition of Org25543 binding, in words: up to highest concentration (sarcosine, L-serine, DL-leucine mM; Org24598 300 μM; LY2365109 10 μM; ALX5407 600 μM). The procedure: For the development of the desired competitive MS Binding Assay, the general concept of this kind of binding experiments was followed, in which the affinity of a test compound is delineated from its potency to compete out a reporter ligand, in our case Org25543, from its target binding site. Accordingly, the target protein was incubated with a defined concentration of the reporter ligand and increasing concentration of the individual test compound. In detail, the competitors were studied at seven different concentration levels, which covered about three concentration log units, whereas the concentration of Org25543 was fixed to 10 nM. Thereafter, via the developed LC‐ESI‐MS/MS method the amount of bound marker (total binding) was determined for the samples obtained from the individual incubation mixtures by the common workup for MS Binding Assays. Nonspecific binding was again determined in a set of analogous experiments in which GlyT2 membrane fractions were replaced by material subjected to a heat‐shock before. The resulting amount of Org25543 binding was defined as 0 % level of specific reporter ligand binding. […] The thus determined IC50 values were finally used to calculate the corresponding K i values by means of the Cheng‐Prusoff equation.
For preparation of GlyT2 membrane preparations HEK293 cells, stably expressing the hGlyT2 with a confluence ≥90 %, were used (kindly provided by AbbVie (Wiesbaden, Germany)). As cell culture medium DMEM containing 10 % fetal bovine serum (m/v), 100 U mL^−1 penicillin, 100 μg mL^−1 streptomycin and […] hygromycin B was used and the cells were cultivated in dishes (143 cm^2) at 37 °C and 8 % CO2. The cells were detached from the dish by aspirating the medium, adding 12 mL cell culture medium without hygromycin B and pipetting the medium several times until the cell lawn was completely detached. Subsequently, the cells were washed twice with PBS (5 min, 1600 rpm, Biofuge Stratos, rotor: #3047, Heraeus, Hanau, Germany) and afterwards homogenized in incubation buffer (10 mM HEPES, 120 mM NaCl, 2 mM KCl, 1 mM MgCl2, 1 mM CaCl2, pH 7.5) using a Polytron PTA 10 S (Kinematica Polytron, Littau‐Luzern, Switzerland). After homogenization aliquots of about 1 mg protein were frozen and stored at −80 °C. To determine the amount of protein in the membrane preparation (after treatment with 100 mM NaOH for 1 h) the protein determination according to Bradford ^[63] was applied, using bovine serum albumin as standard for calibration. At the day of the assay the membrane preparation was rapidly thawed, diluted in 20 mL incubation buffer and centrifuged at 4 °C for 20 min at 20 500 rpm (Sorvall Evolution RC, rotor: SS34, Thermo. Electron, Hanau, Germany). Finally, the resulting pellet was resuspended in 6 mL incubation buffer yielding a protein concentration of ∼0.1–0.2 mg mL^−1.
In polypropylene 96‐well plates (1.2 mL well volume, Sarstedt) membrane preparations (∼5–10 μg protein) were incubated in the presence of the reporter ligand and, if required, test compounds in incubation buffer (10 mM HEPES, 120 mM NaCl, 2 mM KCl, 1 mM MgCl2, 1 mM CaCl2, pH 7.5) in a total volume of 250 μL at 37 °C in a Julabo SW‐20 C water bath (Julabo GmbH, Seelbach, Germany) for 1 h (every sample was prepared in triplicates). After the incubation 210 μL aliquots of the binding samples were transferred by means of a 12‐channel pipette onto 96‐well glass fiber filter plates (AcroPrep Advance, glass fiber, 1.0 μm, 350 μL; Pall Corporation, Port Washington, NY, USA) where the incubation was terminated by vacuum filtration (the samples were transferred and the incubation was terminated row after row; Multi Well Plate Vacuum Manifold, Pall, Dreieich, Germany).

For test [1], the system named is GlyT2. The note with it: cited from earlier work; for pIC50 (literature; calcd): calcd from literature IC50; for IC50: read-out: Biological activity, IC50 (literature).
For test [2], the system named is GlyT2. The note with it: ref 40; read-out: IC50 in glycine uptake studies; cited from earlier work.
[3] abbreviates: read-out: Affinity, pKi (GlyT2 MS Binding Assays) (converted).
Where [4] appears, read: compound 600 μM, Org25543 10 nM.

Several values for one entry are separate records, joined by “and”; a condition that tells them apart may be missing. Equal values may be shown once. Entries after “also recorded” stand apart in the source; their conditions may differ. Read-outs that look alike come from different tables or passages of the source.

`CN(C)CCCN1c2ccccc2Sc2ccc(Cl)cc21` [chlorpromazine]: at hGlyT2 (setting [3]), the Ki is 28.2 µM. Moreover, in the test with GlyT2 [1] (ref 58), the “pIC50 (literature; calcd)” value is 4.68 and the IC50 – broadly, the concentration that gives 50% inhibition – is 21 ± 4 µM.
Turning to `CCCCCCCC/C=C\CCCCCCCC(=O)NCC(=O)O` [N‐oleoylglycine, N‐(1‐oxo‐9‐octadecenyl)‐(Z)‐glycine], at hGlyT2 (setting [3]), the Ki was 2.34 µM. Moreover, the “completeness of displacement of Org25543 from GlyT2, in words” value (“completeness of displacement of Org25543” for short) at hGlyT2 was “not able to displace Org25543 completely”. Further, in the test on GlyT2 [1] (ref 19), the “pIC50 (literature; calcd)” value is given as 6.30 and the IC50 was 0.5 µM.
Regarding `CC(C)CC(N)C(=O)O` (racemic) [DL‐leucine], the “remaining Org25543 binding (% of specific binding) at the highest compound concentration” value at hGlyT2 (compound 10 mM, Org25543 10 nM) came out at 99±3%. Further, at hGlyT2 (setting [3]), the Ki was more than 4270 µM. Besides, on hGlyT2, the “affinity / inhibition of Org25543 binding, in words” value (shortened to “affinity / inhibition”) is listed as “no inhibition of Org25543 binding to more than 50%”.
With `COC(=O)CN` [glycine methyl ester], the Ki at hGlyT2 (setting [3]) is 77600 µM. Moreover, the “Glycine uptake in presence of 1 mM competitor (% of control)” value (from here on “Glycine uptake … (% of control)”) with GlyT2 [1] was 84±5 %^[47],[c].
Take `CN(CC[C@@H](Oc1ccc(C(F)(F)F)cc1)c1ccccc1)CC(=O)O` [Org24598, N‐methyl‐N‐[(3R)‐3‐phenyl‐3‐[4‐(trifluoromethyl)phenoxy]propyl]glycine]: on hGlyT2 (compound 300 μM, Org25543 10 nM), the “remaining Org25543 binding (% of specific binding) at the highest compound concentration” value was 101±5%. In addition, on hGlyT2 (setting [3]), the Ki is more than 129 µM. The “affinity / inhibition” value at hGlyT2 is reported as “hardly any affinity”. Also, in the test with GlyT2 [1] (ref 53), the “pIC50 (literature; calcd)” value was less than 4 and the IC50 is more than 100 µM.
Turning to `N[C@@H](CO)C(=O)O` [L‐serine], on hGlyT2 (compound 180 mM, Org25543 10 nM), the “remaining Org25543 binding (% of specific binding) at the highest compound concentration” value is reported as 97±4%. The Ki on hGlyT2 (setting [3]) was more than 77600 µM. Moreover, the “affinity / inhibition” value at hGlyT2 was “no inhibition of Org25543 binding to more than 50%”. Also, the “Glycine uptake … (% of control)” value in the test with GlyT2 [1] was 89±7 %^[47],[c].
On to `CN(CCC(Oc1ccc(C(=O)c2nccs2)cc1)c1ccc(Cl)cc1)CC(=O)O` (stereo not shown) [CP‐802,079, N‐[3‐(4‐chlorophenyl)‐3‐[4‐(2‐thiazolylcarbonyl)phenoxy]propyl]‐N‐methyl‐glycine], for which the Ki at hGlyT2 (setting [3]) was 22.9 µM. Besides, in the test with GlyT2 [1] (ref 55), the “pIC50 (literature; calcd)” value is recorded as less than 5 and the IC50 was more than 10 µM.
As to `CN(CCOc1ccc(-c2ccc3c(c2)OCO3)cc1C(C)(C)C)CC(=O)O` [LY2365109, N‐[2‐[4‐(1,3‐benzodioxol‐5‐yl)‐2‐(1,1‐dimethylethyl)‐phenoxy]ethyl]‐N‐methylglycine], the “remaining Org25543 binding (% of specific binding) at the highest compound concentration” value on hGlyT2 (compound 10 μM, Org25543 10 nM) stood at 94±10%. For the same compound, the Ki on hGlyT2 (setting [3]) was more than 4.27 µM. Besides, the “affinity / inhibition” value on hGlyT2 is “hardly any affinity”. Further, in the test on GlyT2 [1] (ref 57), the “pIC50 (literature; calcd)” value is reported as less than 4.52 and the IC50 is more than 30 µM.
On to `O=C(O)CCCCSc1ncnc2[nH]c(O)nc12` [ZINC6865169, 5‐((8‐hydroxy‐9H‐purin‐6‐yl)thio)pentanoic acid], for which the figures for the IC50 at hGlyT2, with GlyT2 [1] (ref 40) and in the test on GlyT2 [2] were more than 600 µM, 0.518 ± 0.066 µM and 0.518 µM, respectively. Moreover, the “remaining Org25543 binding (% of specific binding) at the highest compound concentration” value on hGlyT2 (setting [4]) is 77% and 77±6%. Further, the Ki on hGlyT2 (setting [3]) is more than 257 µM. Moreover, the “pIC50 (literature; calcd)” value in the test on GlyT2 [1] (ref 40) is on record as 6.29.
On to `CC(C)c1nnc(-c2ccc(-c3ccccc3)nc2)n1-c1cccc2nonc12` [ASP2535, 4‐[3‐(1‐methylethyl)‐5‐(6‐phenyl‐3‐pyridinyl)‐4H‐1,2,4‐triazol‐4‐yl]‐2,1,3‐benzoxadiazole], for which, on hGlyT2 (setting [3]), the Ki was 1.02 µM. In the test with GlyT2 [1] (ref 56), the “pIC50 (literature; calcd)” value was 5.34 and the IC50 was 4.6 ± 0.29 µM.
Turning to `CN(CC[C@@H](Oc1ccc(-c2ccccc2)cc1)c1ccc(F)cc1)CC(=O)O` [ALX5407, N‐[(3R)‐3‐([1,1′‐biphenyl]‐4‐yloxy)‐3‐(4‐fluorophenyl)propyl]‐N‐methylglycine], on hGlyT2, the IC50 is more than 600 µM and the “affinity / inhibition” value is on record as “hardly a reduction of Org25543 binding”. On hGlyT2 (setting [4]), the “remaining Org25543 binding (% of specific binding) at the highest compound concentration” value stood at 90±5%. The Ki at hGlyT2 (setting [3]) is more than 257 µM. In the test on GlyT2 [1] (ref 40), the “pIC50 (literature; calcd)” value is recorded as 5.74 and the IC50 was 1.8 µM. In addition, in the test on GlyT2 [1] (ref 54), the “pIC50 (literature; calcd)” value is given as less than 4 and the IC50 is more than 100 µM.
Regarding `NCC(=O)O` [glycine], on hGlyT2 (Org25543 10 nM, 37 °C, 1 h, mean±SEM, n=3–5, bounds in brackets where less than 50 % inhibition), the “Affinity, pKi (GlyT2 MS Binding Assays)” value is 1.98±0.08. Moreover, the Ki on hGlyT2 (approximate value, read-out: Ki at GlyT2 in competition experiments) was approximately 10000 µM. For the same compound, the “completeness of displacement of Org25543” value at hGlyT2 was “not able to displace Org25543 completely; also recorded: cannot completely displace Org25543”. In the test with GlyT2 [1] (K m and EC50 values, read-out: Biological activity (literature): K m and EC50 values), the EC50 (as a rule, the concentration that produces a half-maximal response) is 6 to 1800 µM.
Take `O=C(O)C1CCCN1` (racemic) [DL‐proline]: the Ki on hGlyT2 (setting [3]) was 31600 µM. For the same compound, on hGlyT2, the “completeness of displacement of Org25543” value is “not able to displace Org25543 completely”. Further, in the test on GlyT2 [1], the “Glycine uptake … (% of control)” value is 95±5 %^[47],[c].
As for `CNCC(=O)O` [sarcosine], the “remaining Org25543 binding (% of specific binding) at the highest compound concentration” value at hGlyT2 (compound 2.2 mM, Org25543 10 nM) is on record as 98±6%. Also, the Ki on hGlyT2 (setting [3]) was more than 933 µM. On hGlyT2, the “affinity / inhibition” value is given as “no inhibition of Org25543 binding to more than 50%”. Further, in the test on GlyT2 [1] (ref 22), the “pIC50 (literature; calcd)” value is less than 3 and the IC50 was more than 1000 µM.
